Where a name gives a salt, the structure may show the parent alone. Read-outs that look alike come from different tables or passages of the source.
How the values were obtained:
Assay type in all cases: physicochemical
[1] = Approximate solubility (aliquots of solvent, visual inspection)
Description: Weighed samples were treated with aliquots of test solvents at room temperature. Samples were typically sonicated between additions to facilitate dissolution. Complete dissolution of the test material in each solvent was determined by visual inspection. Solubility was estimated based on the total volume of solvent used to provide complete dissolution. The actual solubility may be greater than the value calculated due to the incremental addition of solvent and kinetics of dissolution of the material. […] The solubility is expressed as […] if dissolution occurred after the addition of first aliquot.
Approximate solubilities are calculated based on the total solvent used to give a solution based on visual inspection. Small aliquots of solvent are added to a weighed sample with agitation. Actual solubilities may be greater because of the volume of the solvent portions utilized or a slow rate of dissolution. Solubilities are reported to the nearest mg/mL. Simulated gastric fluid (SGF) was prepared according to the 2008 USP vol. 1, p 817 except without pepsin.
Approximate solubilities are calculated based on the total solvent used to give a solution based on visual inspection. Small aliquots of solvent are added to a weighed sample with agitation. Actual solubilities may be greater because of the volume of the solvent portions utilized or a slow rate of dissolution.

[2] = Relative humidity stress / physical stability on exposure and storage; details: for hygroscopicity (in words): judged from 75% RH exposure; for physical change when exposed to 75% RH: 75% RH for 3 days
Text: Following isolation, salts were then characterized by one or more standard techniques including but not limited to x-ray powder diffraction (XRPD), single crystal x-ray diffraction (SC-XRD or XRD), nuclear magnetic resonance (NMR), solubility analysis, and stability testing by moisture sorption/desorption stress analysis and differential scanning calorimetry (DSC).

[3] = Moisture sorption/desorption (DVS) analysis; details: for weight loss on desorption: between ~95% and ~5% RH; for total weight gain (water uptake): relative humidity from ~5% to ~95% RH; for hygroscopicity (in words): from DVS data; for weight loss during desorption: desorption step, 95% to 5% RH
Description: Moisture sorption/desorption (DVS) data were collected on a VTI SGA-100 Vapor Sorption Analyzer. Sorption and desorption data were collected over a range of 5% to 95% relative humidity (RH) at 10% RH intervals under a nitrogen purge. Samples were not dried prior to analysis. Equilibrium criteria used for analysis were less than 0.0100% weight change in 5 minutes, with a maximum equilibration time of 3 hours if the weight criterion was not met. Data were not corrected for the initial moisture content of the samples. NaCl and PVP were used as calibration standards.

[4] = Water, salts of (S)-4′-(OH)-DADFT-PE (Table 16)
[5] = water, salts of (S)-4′-(OH)-DADFT-PE
[6] = listed as magnesium salt candidate
[7] = listed as Magnesium Salt of (S)-4′-(Oh)-DADFT-PE
[8] = listed as N-methyl-D-glucamine (NMG) Salt of (S)-4′-(OH)-DADFT-PE
[9] = listed as Tromethamine Salt of (S)-4′-(OH)-DADFT-PE
[10] = SGF (simulated gastric fluid, without pepsin), Table 14
[11] = Water, salts of (S)-3′-(OH)-DADFT-PE (Table 14)
[12] = water, salts of (S)-3′-(OH)-DADFT-PE
[13] = sorption step from 5% to 95% RH

COCCOCCOCCOc1ccc(C2=N[C@@](C)(C(=O)O)CS2)c(O)c1 [Calcium A]
solubility ([1]; 0.1N HCl in water, simulated gastric fluid, thermodynamic from solid, 0.1N HCl in Water, Table 16, read-out: Solubility): 3 mg/mL
solubility [1, 4]: <0.5 mg/mL
aqueous solubility (in words) [1, 5]: negligible
deliquescence upon ~75% RH stress [2]: No apparent deliquescence

COCCOCCOCCOc1ccc(C2=N[C@@](C)(C(=O)O)CS2)c(O)c1 [Lysine A, 2,6-diammoniohexanoate (S)-2-(2-hydroxy-4-(2-(2-(2-methoxyethoxy)ethoxy)ethoxy)phenyl)-4-methyl-4,5-dihydrothiazole-4-carboxylate]
solubility [1, 4]: <0.5 mg/mL
aqueous solubility (in words) [1, 5]: negligible
appearance upon ~75% RH stress [2]: became oily
deliquescence upon ~75% RH stress ([2]; listed as Lysine salt candidate): No apparent deliquescence

COCCOCCOCCOc1ccc(C2=N[C@@](C)(C(=O)O)CS2)c(O)c1 [Magnesium A]
solubility [1, 4]: 60 mg/mL
aqueous solubility ([1]; water, salts of (S)-4′-(OH)-DADFT-PE, listed as magnesium salt candidate): ~60 mg/mL
deliquescence upon ~75% RH stress [2, 6]: No apparent deliquescence
additional weight gain above ~85% RH [3, 7]: ~20.2 wt %
weight gain below ~85% RH [3, 7]: ~22.0 wt %
weight loss on desorption [3, 7]: ~41.2 wt %
total weight gain (water uptake) [3, 7]: ~42.7 wt %
total weight gain (water uptake) [3, 6]: ~42.7 wt %
weight loss upon equilibration at ~5% RH [3, 7]: ~0.7 wt %

COCCOCCOCCOc1cccc(C2=N[C@@](C)(C(=O)O)CS2)c1O [Magnesium salt of (S)-3′-(OH)-DADFT-PE, magnesium (S)-2-(2-hydroxy-3-(2-(2-(2-methoxyethoxy)ethoxy)ethoxy)phenyl)-4-methyl-4,5-dihydrothiazole-4-carboxylate hydroxide]
solubility ([1]; simulated gastric fluid (SGF) without pepsin, simulated gastric fluid, thermodynamic from solid, SGF (simulated gastric fluid, without pepsin), Table 14, read-out: Approximate Solubility): ≥ 50 mg/mL
solubility ([1]; water, thermodynamic from solid, Water, salts of (S)-3′-(OH)-DADFT-PE (Table 14), read-out: Approximate Solubility): ≥ 48 mg/mL
solubility ([1]; water, thermodynamic from solid, water, salts of (S)-3′-(OH)-DADFT-PE, read-out: aqueous solubility): ≥ 48 mg/mL
XRPD pattern after exposure to 75% RH ([2]; 75% RH for 8 days): remained unchanged
deliquescence when exposed to 75% RH ([2]; 75% RH for 8 days): did not deliquesce
hygroscopicity (in words) [2]: non-hygroscopic

COCCOCCOCCOc1ccc(C2=N[C@@](C)(C(=O)O)CS2)c(O)c1 [NMG A, 2,3,4,5,6-pentahydroxy-N-methylhexan-1-aminium (S)-2-(2-hydroxy-4-(2-(2-(2-methoxyethoxy)ethoxy)ethoxy)phenyl)-4-methyl-4,5-dihydrothiazole-4-carboxylate]
solubility [1, 4]: 60 mg/mL
aqueous solubility ([1]; water, salts of (S)-4′-(OH)-DADFT-PE, listed as NMG salt candidate): ~60 mg/mL
appearance upon ~75% RH stress [2]: became oily
deliquescence upon ~75% RH stress ([2]; listed as NMG salt candidate): No apparent deliquescence
additional weight gain above ~85% RH [3, 8]: ~27.0 wt %
weight gain below ~85% RH [3, 8]: ~34.7 wt %
weight loss on desorption [3, 8]: ~60.6 wt %
total weight gain (water uptake) [3, 8]: ~61.7 wt %
total weight gain (water uptake) ([3]; listed as NMG salt candidate): ~61.7 wt %
weight loss upon equilibration at ~5% RH [3, 8]: ~0.5 wt %

COCCOCCOCCOc1cccc(C2=N[C@@](C)(C(=O)[O-])CS2)c1O.[Na+] [Sodium salt of (S)-3′-(OH)-DADFT-PE]
physical change when exposed to 75% RH [2]: remained physically unchanged
hygroscopicity (in words) [2]: non-hygroscopic
exposure to ambient air ([2]; lyophilized solid, ambient air (~57% RH) for a few minutes): solids deliquesced

COCCOCCOCCOc1ccc(C2=N[C@@](C)(C(=O)O)CS2)c(O)c1 [Tromethamine A, 1,3-dihydroxy-2-(hydroxymethyl)propan-2-aminium (S)-2-(2-hydroxy-4-(2-(2-(2-methoxyethoxy)ethoxy)ethoxy)phenyl)-4-methyl-4,5-dihydrothiazole-4-carboxylate]
aqueous solubility ([1]; water, salts of (S)-4′-(OH)-DADFT-PE, listed as Tromethamine salt candidate): > 124 mg/mL
appearance upon ~75% RH stress at elevated temperature ([2]; one day relative humidity stress, ~75% RH, elevated temperature): become oily
deliquescence upon ~75% RH stress ([2]; listed as Tromethamine salt candidate): no apparent deliquescence
weight gain above ~65% RH ([3]; above ~65% RH): ~50.3 wt %
weight gain (water uptake) below ~65% RH ([3]; below ~65% RH): ~1.5 wt %
weight loss on desorption [3, 9]: ~48.4 wt %
hygroscopicity (in words) [3]: lower hygroscopicity compared to magnesium and NMG salt candidates
total weight gain (water uptake) [3, 9]: ~51.8 wt %
weight loss upon equilibration at ~5% RH [3, 9]: ~0.7 wt %

COCCOCCOCCOc1cccc(C2=N[C@@](C)(C(=O)O)CS2)c1O [magnesium salt Form B, magnesium (S)-2-(2-hydroxy-3-(2-(2-(2-methoxyethoxy)ethoxy)ethoxy)phenyl)-4-methyl-4,5-dihydrothiazole-4-carboxylate hydroxide]
weight loss upon equilibrium at 5% RH ([3]; 5% RH): 10.8%
additional weight gain during sorption ([3]; above 65% RH, equilibrium weight not reached): 21.2%
weight loss during desorption [3]: 26.6%
weight gain during sorption ([3]; from 5% to 65% RH): 5.7%
hygroscopicity (in words) [3]: hygroscopic

C1CNCCN1.COCCOCCOCCOc1cccc(C2=N[C@@](C)(C(=O)O)CS2)c1O [piperazine salt of (S)-3′-(OH)-DADFT-PE]
physical change when exposed to 75% RH [2]: deliquesced
hygroscopicity (in words) [2]: hygroscopic

COCCOCCOCCOc1cccc(C2=N[C@@](C)(C(=O)[O-])CS2)c1O.[K+] [potassium salt Form A, potassium (S)-3′-desazadesferrithiocin polyether]
Approximate Solubility ([1]; ACN, Table 14): >6 mg/mL
Approximate Solubility ([1]; EtOAc/H2O, Table 14): >70 mg/mL
Approximate Solubility ([1]; IPA, Table 14): >68 mg/mL
Approximate Solubility ([1]; MEK, Table 14): <7 mg/mL
Approximate Solubility [1, 10]: ≧230 mg/mL
Approximate Solubility ([1]; THF, Table 14): ~ 5 mg/mL
Approximate Solubility [1, 11]: ≧48 mg/mL
aqueous solubility [1, 12]: ≥ 48 mg/mL
form obtained on exposure to 53% RH ([2]; 53% RH for 11 days at room temperature): Form B
physical change when exposed to 75% RH [2]: Complete deliquesce
weight loss during desorption [3]: 63.4%
hygroscopicity (in words) [3]: extremely hygroscopic
average percentage weight loss at plateau of absorption curve ([3]; plateau between 45 and 65% RH): 8.7%
weight gain during sorption [3, 13]: 67.7%

COCCOCCOCCOc1cccc(C2=N[C@@](C)(C(=O)[O-])CS2)c1O.[K+] [potassium salt Form B, potassium (S)-3′-desazadesferrithiocin polyether]
form conversion on exposure to 40° C. ([2]; 40° C. for 6 days): desolvated into a mixture with Form A
form conversion on exposure to P2O5 ([2]; P2O5 for 6 days): converted to a new form, namely Form C
physical stability of the form (in words) ([2]; low humidity (P2O5) or elevated temperature (40° C.)): unstable
weight loss during desorption [3]: ~66%
hygroscopicity (in words) [3]: extremely hygroscopic
average percentage weight gain at plateau of absorption curve ([3]; plateau between 35 and 65% RH): ~8%
weight gain during sorption [3, 13]: ~70%

zinc (S)-3′-desazadesferrithiocin polyether [Zinc salt of (S)-3′-(OH)-DADFT-PE]
Approximate Solubility [1, 10]: ≧39 mg/mL
Approximate Solubility [1, 11]: <1 mg/mL
aqueous solubility [1, 12]: ~1 mg/mL
physical change when exposed to 75% RH [2]: remained physically unchanged
hygroscopicity (in words) [2]: non-hygroscopic
